Laboratory results taken from patent US9695155B2, “Herbicidal substituted pyrimidinyloxy benzene compounds” (E. I. DU PONT DE NEMOURS AND COMPANY, priority 2013, dated 2017).

Columns and labels:
morningglory = assay: Test A preemergence; format: in vivo, Ipomoea spp.
Summary of the method: (§1)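 Compounds in non-phytotoxic solvent with surfactant applied as soil spray preemergence, or postemergence to plants 2-10 cm at one- to two-leaf stage, in loam/sand. After approximately 10 days in greenhouse, injury rated visually versus untreated controls, 0 (no effect) to 100 (complete control).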

wheat = assay: Test A preemergence; format: in vivo, Triticum aestivum
Summary of the method: as §1

velvetleaf [1] = assay: Test A postemergence; format: in vivo, Abutilon theophrasti; details: 0 to 100 scale where 0 is no effect and 100 is complete control
Summary of the method: as §1

sedge, umbrella = assay: Test B flooded paddy test; format: in vivo, Cyperus difformis; details: Flood, 250 g ai/ha; 0 to 100 scale where 0 is no effect and 100 is complete control
Summary of the method: (§2)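 Greenhouse flooded-pot test: compounds dosed into 3 cm standing water over 2-leaf plants, flood held constant. Rated visually after 13–15 days on 0–100 (complete control = 100); a dash marks no test result.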

barnyardgrass [2] = assay: Test B flooded paddy test; format: in vivo, Echinochloa crus-galli; details: Flood, 250 g ai/ha; 0 to 100 scale where 0 is no effect and 100 is complete control
Summary of the method: as §2

corn = assay: Test C preemergence; format: in vivo, Zea mays; details: for Corn plant response rating: preemergence
Summary of the method: (§3)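 Sown in loam/sand → sprayed pre-emergence; or grown to 1–4 leaves in peat mix → sprayed post-emergence. Same solvent/surfactant formulation both ways. Greenhouse 13–15 d. Score 0–100 visual.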

giant foxtail = assay: Test C preemergence; format: in vivo, Setaria faberii; details: for Foxtail, Giant plant response rating: preemergence
Summary of the method: as §3

barnyardgrass [3] = assay: Test C preemergence; format: in vivo, Echinochloa crus-galli; details: for Barnyardgrass plant response rating: preemergence
Summary of the method: as §3

oilseed rape [4] = assay: Test C preemergence; format: in vivo, Brassica napus; details: preemergence
Summary of the method: as §3

large (Lg) crabgrass = assay: Test C postemergence; format: in vivo, Digitaria sanguinalis
Summary of the method: as §3

soybean = assay: Test C postemergence; format: in vivo, Glycine max
Summary of the method: as §3

barnyardgrass [5] = assay: Test C postemergence; format: in vivo, Echinochloa crus-galli
Summary of the method: as §3

oilseed rape [6] = assay: Test C postemergence; format: in vivo, Brassica napus
Summary of the method: as §3

waterhemp = assay: Test C postemergence; format: in vivo, Amaranthus rudis
Summary of the method: as §3

velvetleaf [7] = assay: Test C postemergence; format: in vivo, Abutilon theophrasti
Summary of the method: as §3

[8] = 500 g ai/ha, 0 to 100 scale where 0 is no effect and 100 is complete control
[9] = 16 g ai/ha, scale 0 to 100 (0 no effect, 100 complete control)
[10] = 62 g ai/ha, scale 0 (no effect) to 100 (complete control)
[11] = 125 g ai/ha, scale 0 (no effect) to 100 (complete control)
[12] = Preemergence, 31 g ai/ha, scale 0 to 100, 0 no effect, 100 complete control
[13] = 16 g ai/ha, postemergence, 0 is no effect, 100 is complete control
[14] = 31 g ai/ha, postemergence, visual rating, scale 0 to 100 (0 no effect, 100 complete control), 13 to 15 days
[15] = 125 g ai/ha, postemergence, visual rating, scale 0 to 100 (0 no effect, 100 complete control)
[16] = Postemergence, 62 g ai/ha, scale 0 to 100 (0 no effect, 100 complete control)

FC(F)(F)c1cnn(-c2c(Cl)cccc2Oc2ncc(Cl)cn2)c1 [Compound 167]
Morningglory plant response rating (0 to 100 scale) (morningglory; 125 g ai/ha): 90 | Morningglory plant response rating (morningglory; [8]): 100 | Wheat plant response rating (0 to 100 scale) (wheat; 125 g ai/ha): 0 | Wheat plant response rating (wheat; [8]): 50 | Velvetleaf plant response rating (velvetleaf [1]; 125 g ai/ha): 100 | Plant response rating, Velvetleaf (velvetleaf [1]; 500 g ai/ha): 100 | Plant response rating, Sedge, Umbrella (sedge, umbrella): 98 | Plant response rating, Barnyardgrass (barnyardgrass [2]): 35 | Corn plant response rating (corn; [9]): 0 | Corn plant response rating (corn; [10]): 25 | Corn plant response rating (corn; [11]): 60 | Plant response rating, Corn (corn; [12]): 5 | Foxtail, Giant plant response rating (giant foxtail; [9]): 35 | Foxtail, Giant plant response rating (giant foxtail; [10]): 100 | Foxtail, Giant plant response rating (giant foxtail; [11]): 100 | Plant response rating, Foxtail, Giant (giant foxtail; [12]): 95 | Barnyardgrass plant response rating (barnyardgrass [3]; [9]): 5 | Barnyardgrass plant response rating (barnyardgrass [3]; [10]): 100 | Barnyardgrass plant response rating (barnyardgrass [3]; [11]): 100 | Plant response rating, Barnyardgrass (barnyardgrass [3]; [12]): 85 | Oilseed Rape plant response rating (oilseed rape [4]; [9]): 80 | Oilseed Rape plant response rating (oilseed rape [4]; [10]): 90 | Oilseed Rape plant response rating (oilseed rape [4]; [11]): 98 | Plant response rating (0 to 100), Crabgrass, Large (large (Lg) crabgrass; [13]): 5 | Crabgrass, Large plant response rating (large (Lg) crabgrass; [14]): 5 | Plant response rating, Crabgrass, Large (large (Lg) crabgrass; [15]): 10 | Plant response rating, Crabgrass, Large (large (Lg) crabgrass; [16]): 5 | Plant response rating (0 to 100), Soybean (soybean; [13]): 20 | Soybean plant response rating (soybean; [14]): 30 | Plant response rating, Soybean (soybean; [15]): 60 | Plant response rating, Soybean (soybean; [16]): 60 | Plant response rating (0 to 100), Barnyardgrass (barnyardgrass [5]; [13]): 5 | Barnyardgrass plant response rating (barnyardgrass [5]; [14]): 5 | Plant response rating, Barnyardgrass (barnyardgrass [5]; [15]): 10 | Plant response rating, Barnyardgrass (barnyardgrass [5]; [16]): 10 | Plant response rating (0 to 100), Oilseed Rape (oilseed rape [6]; [13]): 15 | Oilseed Rape plant response rating (oilseed rape [6]; [14]): 50 | Plant response rating, Oilseed Rape (oilseed rape [6]; [15]): 70 | Plant response rating, Oilseed Rape (oilseed rape [6]; [16]): 85 | Plant response rating (0 to 100), Waterhemp (waterhemp; [13]): 65 | Waterhemp plant response rating (waterhemp; [14]): 75 | Plant response rating, Waterhemp (waterhemp; [15]): 98 | Plant response rating, Waterhemp (waterhemp; [16]): 85 | Plant response rating (0 to 100), Velvetleaf (velvetleaf [7]; [13]): 35 | Velvetleaf plant response rating (velvetleaf [7]; [14]): 40 | Plant response rating, Velvetleaf (velvetleaf [7]; [15]): 70 | Plant response rating, Velvetleaf (velvetleaf [7]; [16]): 40
